Experimental data: patent publication US20260132132A1, “3A,4,5,6-TETRAHYDRO-1 H-PYRAZOLO[3,4-C]PYRIDIN-7(7AH)-ONE DERIVATIVES AS FACTOR XIIA INHIBITORS” (KALVISTA PHARMACEUTICALS LIMITED, priority 2022, published 2026)
pIC50: −log10 of the molar value.

Key:
Type in all cases: biochemical
[1] = biological target: T1, Human Factor XIIa (hFXIIa) (Homo sapiens, UniProt P00748); assay: Determination of Human Factor XIIa (hFXIIa) inhibition, fluorogenic substrate IC50 assay; conditions: fluorogenic substrate H-DPro-Phe-Arg-AFC at Km, 25° C., read-out: Human FXIIa IC50
T1 construct: purchased Enzyme Research Laboratories
T1 sequence (P00748 373-615 limits assumed): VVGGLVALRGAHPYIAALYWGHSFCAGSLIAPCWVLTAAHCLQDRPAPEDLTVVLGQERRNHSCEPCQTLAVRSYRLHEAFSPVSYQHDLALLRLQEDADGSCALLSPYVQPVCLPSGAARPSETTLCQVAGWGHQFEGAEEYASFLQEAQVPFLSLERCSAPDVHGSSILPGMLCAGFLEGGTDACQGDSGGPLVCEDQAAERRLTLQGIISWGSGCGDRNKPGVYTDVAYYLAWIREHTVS
T1 sequence (P00748 20-372 partner limits assumed): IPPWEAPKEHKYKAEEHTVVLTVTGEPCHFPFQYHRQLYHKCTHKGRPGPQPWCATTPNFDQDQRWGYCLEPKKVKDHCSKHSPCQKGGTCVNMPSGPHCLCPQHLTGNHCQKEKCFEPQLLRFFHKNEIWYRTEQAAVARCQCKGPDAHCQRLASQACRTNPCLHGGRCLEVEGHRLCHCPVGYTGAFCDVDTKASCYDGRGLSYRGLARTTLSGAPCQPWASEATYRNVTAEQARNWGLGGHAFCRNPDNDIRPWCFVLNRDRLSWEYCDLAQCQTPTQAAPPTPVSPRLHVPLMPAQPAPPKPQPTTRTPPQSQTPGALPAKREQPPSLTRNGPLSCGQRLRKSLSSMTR
Method: Determination of Human Factor XIIa (hFXIIa) inhibition
The Km for the cleavage of the substrate by hFXIIa was determined by standard transformation of the Michaelis-Menten equation, with subsequent inhibition assays performed at substrate Km concentration.

FXa = FXa (Homo sapiens, UniProt P00742); assay: Related protease inhibition: FXa, fluorogenic substrate; conditions: fluorogenic substrate at Km, 25° C., H1-H3 = % activity at 40 μM; for activity at 40 µM: read-out: IC50 (human FXa) nM
Sequence of FXa (P00742 235-488 limits assumed): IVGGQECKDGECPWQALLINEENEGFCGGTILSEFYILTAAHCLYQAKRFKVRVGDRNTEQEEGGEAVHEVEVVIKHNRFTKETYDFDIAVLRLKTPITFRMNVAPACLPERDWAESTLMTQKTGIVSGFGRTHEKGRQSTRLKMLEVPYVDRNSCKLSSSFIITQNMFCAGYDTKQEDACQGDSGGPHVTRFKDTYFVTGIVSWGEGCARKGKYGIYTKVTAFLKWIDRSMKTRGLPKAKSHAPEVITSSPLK
Sequence of FXa (P00742 41-179 partner limits assumed): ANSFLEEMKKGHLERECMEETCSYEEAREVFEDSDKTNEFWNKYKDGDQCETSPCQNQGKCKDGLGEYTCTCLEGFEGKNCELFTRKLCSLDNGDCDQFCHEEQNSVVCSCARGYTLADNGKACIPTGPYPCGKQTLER
Method: (§1) Human serine protease enzyme Plasma Kallikrein, KLK1, FXa, Plasmin, Thrombin and Trypsin were assayed for enzymatic activity using an appropriate fluorogenic substrate at Km concentration, FXIa at fixed substrate concentration of 100 μM and various concentrations of the test compound.

Thrombin = Thrombin (Homo sapiens, UniProt P00734); assay: Related protease inhibition: Thrombin, fluorogenic substrate; conditions: fluorogenic substrate at Km, 25° C., H1-H3 = % activity at 40 μM; for activity at 40 µM: read-out: IC50 (human thrombin) nM
Method: as §1

In the case of `CCNC(=O)c1nn(-c2cccc(Cl)c2CO)c2c1CCN(c1ccc3c(c1)C(=O)N(C)CC3)C2=O` [Example 2052, 1-(3-chloro-2-(hydroxymethyl)phenyl)-N-ethyl-6-(2-methyl-1-oxo-1,2,3,4-tetrahydroisoquinolin-7-yl)-7-oxo-4,5,6,7-tetrahydro-1H-pyrazolo[3,4-c]pyridine-3-carboxamide], the pIC50 [1] was 4.40 to 5.00, the activity at 40 µM (FXa) was > 80% and the activity at 40 µM (Thrombin) was > 80%.

In the case of `CN1CCOc2ccc(N3CCc4c(C(=O)N[C@H](CO)C5CC5)nn(-c5cccc(Cl)c5F)c4C3=O)cc2C1=O` [Example 2053, (S)-1-(3-chloro-2-fluorophenyl)-N-(1-cyclopropyl-2-hydroxyethyl)-6-(4-methyl-5-oxo-2,3,4,5-tetrahydrobenzo[f][1,4]oxazepin-7-yl)-7-oxo-4,5,6,7-tetrahydro-1H-pyrazolo[3,4-c]pyridine-3-carboxamide], the pIC50 [1] was 7.00 to 8.00, the activity at 40 µM (FXa) was 20 to 80% and the activity at 40 µM (Thrombin) was > 80%.

`CCNC(=O)c1nn(-c2ccc(O)c(Cl)c2)c2c1CCN(c1ccc3c(c1)C(=O)N(C)CC3)C2=O` [Example 2054, 1-(3-chloro-4-hydroxyphenyl)-N-ethyl-6-(2-methyl-1-oxo-1,2,3,4-tetrahydroisoquinolin-7-yl)-7-oxo-4,5,6,7-tetrahydro-1H-pyrazolo[3,4-c]pyridine-3-carboxamide] was tested, and the pIC50 [1] was 5.00 to 5.52, the activity at 40 µM (FXa) was > 80% and the activity at 40 µM (Thrombin) was > 80%.

With `CN1CCc2ccc(N3CCc4c(C(=O)NCC(=O)O)nn(-c5cc(Cl)cc(CN)c5)c4C3=O)cc2C1=O` [Example 2056, (1-(3-(aminomethyl)-5-chlorophenyl)-6-(2-methyl-1-oxo-1,2,3,4-tetrahydroisoquinolin-7-yl)-7-oxo-4,5,6,7-tetrahydro-1H-pyrazolo[3,4-c]pyridine-3-carbonyl)glycine] the pIC50 [1] was 7.00 to 8.00, the activity at 40 µM (FXa) was 20 to 80% and the activity at 40 µM (Thrombin) was > 80%.

Work on `CCNC(=O)c1nn(-c2ccc(Cl)c(C)c2)c2c1CCN(c1ccc3c(c1)C(=O)N(C)CC3)C2=O` [Example 2057, 1-(4-chloro-3-methylphenyl)-N-ethyl-6-(2-methyl-1-oxo-1,2,3,4-tetrahydroisoquinolin-7-yl)-7-oxo-4,5,6,7-tetrahydro-1H-pyrazolo[3,4-c]pyridine-3-carboxamide] yielded a pIC50 [1] of 5.52 to 6.00, an activity at 40 µM (FXa) of 20 to 80% and an activity at 40 µM (Thrombin) of 20 to 80%.

In the case of `CCNC(=O)c1nn(-c2cc(Cl)cc(COC)c2)c2c1CCN(c1ccc3c(c1)C(=O)N(C)CC3)C2=O` [Example 2058, 1-(3-chloro-5-(methoxymethyl)phenyl)-N-ethyl-6-(2-methyl-1-oxo-1,2,3,4-tetrahydroisoquinolin-7-yl)-7-oxo-4,5,6,7-tetrahydro-1H-pyrazolo[3,4-c]pyridine-3-carboxamide], the pIC50 [1] was 5.00 to 5.52, the pIC50 (FXa) was < 4.40 and the pIC50 (Thrombin) was < 4.40.
